# ChEMBL document CHEMBL3044865, “Herbicidal Activity and Characteristics of Pyraflufen-ethyl for Controlling Broad-leaved Weeds in Cereals” (J Pestic Sci, 2002)
# The source made the active and inactive calls. No cut-off for these calls is given here.
# Key:
# Alopecurus myosuroides [1] = test: Herbicidal activity against Alopecurus myosuroides assessed as killing at 0.3 g/ha post emergence application measured after 21 days after treatment; format: functional, organism-based
# Alopecurus myosuroides [2] = test: Herbicidal activity against Alopecurus myosuroides assessed as killing at 100 g/ha post emergence application measured after 21 days after treatment; format: functional, organism-based
# Avena fatua [3] = test: Herbicidal activity against Avena fatua assessed as killing at 1 g/ha post emergence application measured after 21 days after treatment; format: functional
# Veronica hederifolia [4] = test: Herbicidal activity against Veronica hederaefolia assessed as killing at 3 g/ha post emergence application measured after 21 days after treatment; format: functional
# Galium aparine [5] = test: Herbicidal activity against Galium aparine assessed as killing at 100 g/ha post emergence application measured after 21 days after treatment; format: functional
# Avena fatua [6] = test: Herbicidal activity against Avena fatua assessed as killing at 0.3 g/ha post emergence application measured after 21 days after treatment; format: functional, organism-based
# Stellaria media [7] = test: Herbicidal activity against Stellaria media assessed as killing at 10 g/ha post emergence application measured after 21 days after treatment; format: functional
# [8] = target: T1, Protoporphyrinogen IX oxidase (Cichorium intybus) (UniProt Q9SPL6); test: Inhibition of Tripleurospermum maritimum subsp. inodorum protoporphyrinogen oxidase by post-emergence herbicidal activity assay
# T1 sequence (whole entry): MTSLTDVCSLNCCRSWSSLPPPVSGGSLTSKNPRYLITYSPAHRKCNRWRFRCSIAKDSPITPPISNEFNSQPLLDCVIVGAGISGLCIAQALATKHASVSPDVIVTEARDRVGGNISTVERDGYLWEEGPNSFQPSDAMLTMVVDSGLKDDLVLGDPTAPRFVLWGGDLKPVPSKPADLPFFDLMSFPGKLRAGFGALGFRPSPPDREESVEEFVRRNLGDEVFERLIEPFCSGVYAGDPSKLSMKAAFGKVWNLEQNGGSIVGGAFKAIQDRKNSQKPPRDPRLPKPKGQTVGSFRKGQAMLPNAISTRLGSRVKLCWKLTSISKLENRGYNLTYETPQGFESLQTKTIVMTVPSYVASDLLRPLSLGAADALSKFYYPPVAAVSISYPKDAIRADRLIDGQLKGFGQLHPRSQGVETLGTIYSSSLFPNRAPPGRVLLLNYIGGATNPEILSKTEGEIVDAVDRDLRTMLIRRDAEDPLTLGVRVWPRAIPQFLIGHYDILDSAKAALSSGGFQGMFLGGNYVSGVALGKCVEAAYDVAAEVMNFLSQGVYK
# Triticum aestivum [9] = test: Phytotoxicity in Triticum aestivum (wheat) assessed as injury at 1 g/ha post emergence application measured after 21 days after treatment; format: organism-based; conditions: in vivo, other, 504 h
# Galium aparine [10] = test: Herbicidal activity against Galium aparine assessed as killing at 12 g/ha measured after 21 days after treatment by time-course analysis; format: functional
# Galium aparine [11] = test: Herbicidal activity against Galium aparine assessed as killing at 1 g/ha post emergence application measured after 21 days after treatment; format: functional
# Triticum aestivum [12] = test: Phytotoxicity in Triticum aestivum (wheat) assessed as injury at 10 g/ha post emergence application measured after 21 days after treatment; format: organism-based; conditions: in vivo, other, 504 h
# Triticum aestivum [13] = test: Phytotoxicity in Triticum aestivum (wheat) assessed as injury at 300 g/ha pre emergence application measured after 21 days after treatment; format: organism-based; conditions: in vivo, other, 504 h
# [14] = Ratio of compound ED90 to […] ED90 for herbicidal activity against Matricaria inodora
# Hordeum vulgare = test: Phytotoxicity in Hordeum vulgare (barley) assessed as injury at 1 g/ha post emergence application measured after 21 days after treatment; format: organism-based; conditions: in vivo, other, 504 h
# Alopecurus myosuroides [15] = test: Herbicidal activity against Alopecurus myosuroides assessed as killing at 1 g/ha post emergence application measured after 21 days after treatment; format: functional, organism-based
# Viola arvensis [16] = test: Herbicidal activity against Viola arvensis assessed as killing at 0.3 g/ha post emergence application measured after 21 days after treatment; format: functional
# Stellaria media [17] = test: Herbicidal activity against Stellaria media assessed as killing at 3 g/ha post emergence application measured after 21 days after treatment; format: functional
# Veronica hederifolia [18] = test: Herbicidal activity against Veronica hederaefolia assessed as killing at 30 g/ha post emergence application measured after 21 days after treatment; format: functional
# Stellaria media [19] = test: Herbicidal activity against Stellaria media assessed as killing at 10 g/ha pre emergence application measured after 21 days after treatment; format: functional
# Veronica hederifolia [20] = test: Herbicidal activity against Veronica hederaefolia assessed as killing at 300 g/ha post emergence application measured after 21 days after treatment; format: functional
# Avena fatua [21] = test: Herbicidal activity against Avena fatua assessed as killing at 10 g/ha pre emergence application measured after 21 days after treatment; format: functional, organism-based
# Viola arvensis [22] = test: Herbicidal activity against Viola arvensis assessed as killing at 30 g/ha post emergence application measured after 21 days after treatment; format: functional
# [23] = target: T2, Protoporphyrinogen oxidase, chloroplastic (Nicotiana tabacum) (UniProt O24163); test: Inhibition of Galium aparine protoporphyrinogen oxidase by post-emergence herbicidal activity assay
# T2 sequence (whole entry): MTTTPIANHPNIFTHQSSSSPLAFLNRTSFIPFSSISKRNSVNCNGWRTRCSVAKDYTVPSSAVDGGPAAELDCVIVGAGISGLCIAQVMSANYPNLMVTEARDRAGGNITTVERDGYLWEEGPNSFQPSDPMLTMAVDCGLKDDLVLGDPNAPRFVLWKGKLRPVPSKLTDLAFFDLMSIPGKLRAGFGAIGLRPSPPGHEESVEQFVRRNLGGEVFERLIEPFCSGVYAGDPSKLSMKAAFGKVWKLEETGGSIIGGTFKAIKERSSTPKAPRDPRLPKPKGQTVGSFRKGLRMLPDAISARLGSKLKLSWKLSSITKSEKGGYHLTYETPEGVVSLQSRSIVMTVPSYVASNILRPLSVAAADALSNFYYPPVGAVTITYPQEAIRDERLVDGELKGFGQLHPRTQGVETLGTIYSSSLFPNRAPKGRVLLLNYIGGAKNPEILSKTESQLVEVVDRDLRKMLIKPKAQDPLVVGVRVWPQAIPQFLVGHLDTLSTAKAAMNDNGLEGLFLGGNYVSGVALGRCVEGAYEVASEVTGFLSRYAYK
# Viola arvensis [24] = test: Ratio of compound ED90 to ioxynil ED90 for herbicidal activity against Viola arvensis
# Galium aparine [25] = test: Herbicidal activity against Galium aparine assessed as killing at 10 g/ha post emergence application measured after 21 days after treatment; format: functional
# Triticum aestivum [26] = test: Phytotoxicity in Triticum aestivum (wheat) assessed as injury at 0.3 g/ha post emergence application measured after 21 days after treatment; format: organism-based; conditions: in vivo, other, 504 h
# Triticum aestivum [27] = test: Phytotoxicity in Triticum aestivum (wheat) assessed as injury at 100 g/ha pre emergence application measured after 21 days after treatment; format: organism-based; conditions: in vivo, other, 504 h
# Galium aparine [28] = test: Herbicidal activity against Galium aparine assessed as killing at 30 g/ha post emergence application measured after 21 days after treatment; format: functional
# Viola arvensis [29] = test: Herbicidal activity against Viola arvensis assessed as killing at 5 g/ha measured after 21 days after treatment under greenhouse by time-course analysis; format: functional
# Stellaria media [30] = test: Ratio of compound ED90 to ioxynil ED90 for herbicidal activity against Stellaria media
# Avena fatua [31] = test: Herbicidal activity against Avena fatua assessed as killing at 10 g/ha post emergence application measured after 21 days after treatment; format: functional
# Viola arvensis [32] = test: Herbicidal activity against Viola arvensis assessed as killing at 300 g/ha post emergence application measured after 21 days after treatment; format: functional
structure (smiles),measurement,setting,value
CCOC(=O)COc1cc(-c2nn(C)c(OC(F)F)c2Cl)c(F)cc1Cl [PYRAFLUFEN-ETHYL],Activity,Alopecurus myosuroides [1],inactive
same,Activity,Alopecurus myosuroides [2],inactive
same,Activity,Avena fatua [3],1%
same,Activity,Veronica hederifolia [4],100%
same,Activity,Galium aparine [5],40%
same,Activity,Avena fatua [6],inactive
same,Activity,Stellaria media [7],100%
same,ED90,[8],0.3 gAi/ha
same,Activity,Triticum aestivum [9],Non-toxic
same,Activity,Galium aparine [10],>90%
same,Activity,Galium aparine [11],80%
same,Activity,Triticum aestivum [12],11%
same,Activity,Triticum aestivum [13],11%
same,Ratio,[14],3330
same,Activity,Hordeum vulgare,Non-toxic
same,Activity,Alopecurus myosuroides [15],inactive
same,Activity,Viola arvensis [16],21%
same,Activity,Stellaria media [17],100%
same,Activity,Veronica hederifolia [18],11%
same,Activity,Stellaria media [19],21%
same,Activity,Veronica hederifolia [20],80%
same,Activity,Avena fatua [21],inactive
same,Activity,Viola arvensis [22],40%
same,ED90,[23],1.5 gAi/ha
same,Ratio,Viola arvensis [24],10
same,Activity,Galium aparine [25],100%
same,Activity,Triticum aestivum [26],Non-toxic
same,Activity,Triticum aestivum [27],1%
same,Activity,Galium aparine [28],21%
same,Activity,Viola arvensis [29],90%
same,Ratio,Stellaria media [30],166
same,Activity,Avena fatua [31],21%
same,Activity,Viola arvensis [32],50%
